One experiment concerns the target T1, purified human FAS (Homo sapiens, UniProt P49327).
T1 construct: Human FAS was purified from cultured ZR-75-1 human breast cancer cells; endogenous in cells; host or cells: ZR-75-1 human breast cancer cells (ATCC); enzyme purified by PEG precipitation and Mono Q chromatography
The experiment is described as follows: FAS enzymatic activity (malonyl-CoA dependent NADPH oxidation). It counts as biochemical. The following applies: for IC50: (SB). How it is done:
Purification of FAS from ZR-75-1 Human Breast Cancer Cells.
Human FAS was purified from cultured ZR-75-1 human breast cancer cells obtained from the American Type Culture Collection. The procedure, adapted from Linn et al., 1981, and Kuhajda et al., 1994, utilizes hypotonic lysis, successive polyethyleneglycol (PEG) precipitations, and anion exchange chromatography. ZR-75-1 cells are cultured at 37° C. with 5% CO2 in RPMI culture medium with 10% fetal bovine serum, penicillin and streptomycin.
Ten T150 flasks of confluent cells are lysed with 1.5 ml lysis buffer (20 mM Tris-HCl, pH 7.5, 1 mM EDTA, 0.1 mM phenylmethanesulfonyl fluoride (PMSF), 0.1% Igepal CA-630) and dounce homogenized on ice for 20 strokes. The lysate is centrifuged in JA-20 rotor (Beckman) at 20,000 rpm for 30 minutes at 4° C. and the supernatant is brought to 42 ml with lysis buffer. A solution of 50% PEG 8000 in lysis buffer is added slowly to the supernatant to a final concentration of 7.5%. After rocking for 60 minutes at 4° C., the solution is centrifuged in JA-20 rotor (Beckman) at 15,000 rpm for 30 minutes at 4° C. Solid PEG 8000 is then added to the supernatant to a final concentration of 15%. After the rocking and centrifugation is repeated as above, the pellet is resuspended overnight at 4° C. in 10 ml of Buffer A (20 mM K2HPO4, pH 7.4). After […] filtration, the protein solution is applied to a Mono Q 5/5 anion exchange column (Pharmacia). The column is washed for 15 minutes with buffer A at 1 ml/minute, and bound material is eluted with a linear 60-ml gradient over 60 minutes to 1 M KCl. FAS (MW˜270 kD) typically elutes at 0.25 M KCl in three 0.5 ml fractions identified using 4-15% SDS-PAGE with Coomassie G250 stain (Bio-Rad). FAS protein concentration is determined using the Coomassie Plus Protein Assay Reagent (Pierce) according to manufacturer's specifications using BSA as a standard. This procedure results in substantially pure preparations of FAS (>95%) as judged by Coomassie-stained gels.
Measurement of FAS Enzymatic Activity and Determination of the IC50 of the Compounds
FAS activity is measured by monitoring the malonyl-CoA dependent oxidation of NADPH spectrophotometrically at OD340 in 96-well plates (Dils et al and Arslanian et al, 1975). Each well contains 2 μg purified FAS, 100 mM K2HPO4, pH 6.5, 1 mM dithiothreitol (Sigma), and 187.5 μM β-NADPH (Sigma). Stock solutions of inhibitors are prepared in DMSO at 2, 1, and 0.5 mg/ml resulting in final concentrations of 20, 10, and 5 μg/ml when 1 μl of stock is added per well. For each experiment, cerulenin (Sigma) is run as a positive control along with DMSO controls, inhibitors, and blanks (no FAS enzyme) all in duplicate.
The assay is performed on a Molecular Devices SpectraMax Plus Spectrophotometer. The plate containing FAS, buffers, inhibitors, and controls are placed in the spectrophotometer heated to 37° C. Using the kinetic protocol, the wells are blanked on duplicate wells containing 100 μl of 100 mM K2HPO4, pH 6.5 and the plate is read at OD340 at 10 sec intervals for 5 minutes to measure any malonyl-CoA independent oxidation of NADPH. The plate is removed from the spectrophotometer and malonyl-CoA (67.4 μM, final concentration per well) and […] (61.8 μM, final concentration per well) are added to each well except to the blanks. The plate is read again as above with the kinetic protocol to measure the malonyl-CoA dependent NADPH oxidation. The difference between the Δ OD340 for the malonyl-CoA dependent and non-malonyl-CoA dependent NADPH oxidation is the specific FAS activity. Because of the purity of the FAS preparation, non-malonyl-CoA dependent NADPH oxidation is negligible.
The IC50 for the compounds against FAS is determined by plotting the Δ OD340 for each inhibitor concentration tested, performing linear regression and computing the best-fit line, r^2 values, and 95% confidence intervals. The concentration of compound yielding 50% inhibition of FAS is the IC50. […]

Experiment [1] concerns fatty acid synthesis in MCF-7 human breast cancer cells. The experiment is described as follows: [14C]acetate incorporation into total lipids. It counts as cell-based. The following applies: MCF-7 cells. How it is done:
Measurement of [^14C]acetate Incorporation into Total Lipids and Determination of IC50 of Compounds
This assay measures the incorporation of [^14C]acetate into total lipids and is a measure of fatty acid synthesis pathway activity in vitro. It is utilized to measure inhibition of fatty acid synthesis in vitro.
MCF-7 human breast cancer cells cultured as above, are plated at 5×10^4 cells per well in 24-well plates. Following overnight incubation, the compounds to be tested, solubilized in DMSO, are added at 5, 10, and 20 μg/ml in triplicate, with lower concentrations tested if necessary. DMSO is added to triplicate wells for a vehicle control. C75 is run at 5 and 10 μg/ml in triplicate as positive controls. After 4 hours of incubation, 0.25 μCi of [^14C]acetate (10 μl volume) is added to each well.
After 2 hours of additional incubation, medium is aspirated from the wells and 800 μl of chloroform:methanol (2:1) and 700 μl of 4 mM MgCl2 is added to each well. Contents of each well are transferred to 1.5 Eppendorf tubes, and spun at full-speed for 2 minutes in a high-speed Eppendorf Microcentrifuge 5415D. After removal of the aqueous (upper) layer, an additional 700 μl of chloroform:methanol (2:1) and 500 μl of 4 mM MgCl2 are added to each tube and then centrifuged for 1 minutes as above. […] Once dried, 3 ml of scintillant (APB #NBC5104) is added and vials are counted for ^14C. […]

Each structure is given as a SMILES string.

In general, IC50 refers to the concentration at which inhibition is half-maximal.

T1 sequence (P49327 whole entry): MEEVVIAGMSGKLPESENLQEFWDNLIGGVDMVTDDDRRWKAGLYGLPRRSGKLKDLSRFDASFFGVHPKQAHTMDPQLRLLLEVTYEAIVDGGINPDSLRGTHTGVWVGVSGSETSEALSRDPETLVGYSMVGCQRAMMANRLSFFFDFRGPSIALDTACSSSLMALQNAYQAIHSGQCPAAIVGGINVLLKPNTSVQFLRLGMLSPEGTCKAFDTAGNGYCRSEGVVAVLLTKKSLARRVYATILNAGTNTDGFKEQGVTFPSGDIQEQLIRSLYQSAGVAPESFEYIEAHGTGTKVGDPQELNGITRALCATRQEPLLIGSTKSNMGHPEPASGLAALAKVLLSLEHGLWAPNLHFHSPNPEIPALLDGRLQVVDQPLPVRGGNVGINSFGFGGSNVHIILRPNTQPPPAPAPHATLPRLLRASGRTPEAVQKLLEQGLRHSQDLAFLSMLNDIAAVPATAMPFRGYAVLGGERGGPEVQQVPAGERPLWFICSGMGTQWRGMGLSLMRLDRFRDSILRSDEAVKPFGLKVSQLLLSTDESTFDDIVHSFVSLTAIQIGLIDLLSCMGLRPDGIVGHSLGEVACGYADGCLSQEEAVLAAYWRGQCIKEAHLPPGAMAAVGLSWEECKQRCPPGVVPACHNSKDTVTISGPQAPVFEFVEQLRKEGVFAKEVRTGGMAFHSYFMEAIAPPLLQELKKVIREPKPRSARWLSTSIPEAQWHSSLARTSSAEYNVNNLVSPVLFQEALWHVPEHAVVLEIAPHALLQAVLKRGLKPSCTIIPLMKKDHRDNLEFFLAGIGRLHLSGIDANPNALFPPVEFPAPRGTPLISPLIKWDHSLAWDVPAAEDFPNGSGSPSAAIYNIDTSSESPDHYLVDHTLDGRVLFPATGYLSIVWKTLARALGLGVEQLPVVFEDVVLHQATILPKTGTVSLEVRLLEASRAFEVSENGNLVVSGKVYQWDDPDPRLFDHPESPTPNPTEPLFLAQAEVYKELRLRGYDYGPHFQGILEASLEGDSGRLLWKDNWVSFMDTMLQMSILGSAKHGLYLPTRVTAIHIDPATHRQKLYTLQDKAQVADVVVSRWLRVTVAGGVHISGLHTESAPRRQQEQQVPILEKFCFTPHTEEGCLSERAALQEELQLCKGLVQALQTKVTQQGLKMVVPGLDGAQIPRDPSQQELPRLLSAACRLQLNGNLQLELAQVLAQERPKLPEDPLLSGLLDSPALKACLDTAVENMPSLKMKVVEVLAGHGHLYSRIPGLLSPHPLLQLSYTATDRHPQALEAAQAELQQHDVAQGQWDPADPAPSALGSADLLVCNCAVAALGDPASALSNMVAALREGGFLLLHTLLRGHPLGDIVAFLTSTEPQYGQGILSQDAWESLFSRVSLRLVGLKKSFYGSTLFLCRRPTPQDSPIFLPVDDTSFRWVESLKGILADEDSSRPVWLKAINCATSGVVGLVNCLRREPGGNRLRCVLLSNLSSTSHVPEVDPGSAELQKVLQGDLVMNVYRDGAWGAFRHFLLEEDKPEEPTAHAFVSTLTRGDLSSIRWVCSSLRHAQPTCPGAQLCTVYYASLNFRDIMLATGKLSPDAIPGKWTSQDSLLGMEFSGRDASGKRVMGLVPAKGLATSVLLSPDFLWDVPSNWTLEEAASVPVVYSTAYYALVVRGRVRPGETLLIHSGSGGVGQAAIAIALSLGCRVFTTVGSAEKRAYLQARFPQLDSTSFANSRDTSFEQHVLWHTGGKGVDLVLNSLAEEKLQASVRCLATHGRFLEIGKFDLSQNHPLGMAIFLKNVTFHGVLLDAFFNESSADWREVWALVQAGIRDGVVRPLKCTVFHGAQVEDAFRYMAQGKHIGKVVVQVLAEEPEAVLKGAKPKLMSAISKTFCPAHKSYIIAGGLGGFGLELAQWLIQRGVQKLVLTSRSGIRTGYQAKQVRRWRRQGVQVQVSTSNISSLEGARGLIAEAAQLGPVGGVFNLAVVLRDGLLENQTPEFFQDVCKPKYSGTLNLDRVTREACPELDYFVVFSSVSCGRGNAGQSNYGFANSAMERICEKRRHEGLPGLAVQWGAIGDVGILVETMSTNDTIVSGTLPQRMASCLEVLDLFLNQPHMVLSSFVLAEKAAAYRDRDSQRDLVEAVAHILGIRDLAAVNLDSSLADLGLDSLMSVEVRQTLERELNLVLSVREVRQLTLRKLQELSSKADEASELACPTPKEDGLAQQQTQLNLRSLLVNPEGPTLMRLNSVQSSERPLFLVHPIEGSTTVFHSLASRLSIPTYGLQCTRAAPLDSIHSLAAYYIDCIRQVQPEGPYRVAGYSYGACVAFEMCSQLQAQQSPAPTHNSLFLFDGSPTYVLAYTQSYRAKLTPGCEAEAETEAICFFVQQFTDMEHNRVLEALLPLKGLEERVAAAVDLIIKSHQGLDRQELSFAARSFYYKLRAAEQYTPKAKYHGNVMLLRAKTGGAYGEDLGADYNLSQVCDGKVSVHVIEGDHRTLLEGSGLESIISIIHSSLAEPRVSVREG

Take `CCCCCCCCCCC1(C)SC(=O)C(C)(C)C1=O` (centres unmarked) [Compound 12, 3,3,5-Trimethyl-5-decyl-thiophene-2,4-dione]: the half-inhibitory concentration (IC50) against purified human FAS was 854 µM.
In turn, `C=CCC1(CC=C)C(=O)SC(C)(CCCCCCCCCC)C1=O` (centres unmarked) [Compound 15, 3,3-Diallyl-5-methyl-5-decyl-thiophene-2,4-dione] showed an IC50 on purified human FAS of 804 µM.
As to `C=CCC1(CC=C)C(=O)SC(C)(CCCCCCCC)C1=O` (racemic) [Compound 4, 3,3-Diallyl-5-methyl-5-octyl-thiophene-2,4-dione], at purified human FAS, the “FAS (IC50)” value is “Neg” and half-maximal inhibition (IC50) was put at 884 µM. Also, the “14C (IC50)” value in experiment [1] was “Neg”.
